Measurements from patent publication US11572590B2, “Methods for evaluating tumor cell spheroids using 3D microfluidic cell culture device” (Dana-Farber Cancer Institute, Inc., priority 2017, dated 2023).
Like-named read-outs stand apart in the source and are kept apart here.

Tests used:
Assay in all cases: SelectScreen Kinase Profiling, single point inhibition and IC50 for off-target kinases
Type in all cases: biochemical
off-target kinases [1] = biological target: off-target kinases (Homo sapiens, UniProt P16234, D842V); conditions: PDGFRA D842V, ATP Km app, ZLYTE
off-target kinases [2] = biological target: off-target kinases (Homo sapiens, UniProt P27448); conditions: MARK3, ATP Km app, ZLYTE
off-target kinases [3] = biological target: off-target kinases (Homo sapiens, UniProt P54764); conditions: EPHA4, ZLYTE, ATP Km app
off-target kinases [4] = biological target: off-target kinases (Homo sapiens, UniProt Q00535)
off-target kinases [5] = biological target: off-target kinases (Homo sapiens, UniProt Q04759); conditions: PRKCQ (PKC theta); Cmpd1 1000 μM; ATP Km app; ZLYTE
off-target kinases [6] = biological target: off-target kinases (Homo sapiens, UniProt Q08345); conditions: DDR1, LanthaScreen Binding
off-target kinases [7] = biological target: off-target kinases (Homo sapiens, UniProt Q16816); conditions: PHKG1, ZLYTE, ATP Km app
off-target kinases [8] = biological target: T1, off-target kinases (Homo sapiens, UniProt Q8TD19); conditions: NEK9, ATP Km app, ZLYTE
T1 sequence (Q8TD19 1-979): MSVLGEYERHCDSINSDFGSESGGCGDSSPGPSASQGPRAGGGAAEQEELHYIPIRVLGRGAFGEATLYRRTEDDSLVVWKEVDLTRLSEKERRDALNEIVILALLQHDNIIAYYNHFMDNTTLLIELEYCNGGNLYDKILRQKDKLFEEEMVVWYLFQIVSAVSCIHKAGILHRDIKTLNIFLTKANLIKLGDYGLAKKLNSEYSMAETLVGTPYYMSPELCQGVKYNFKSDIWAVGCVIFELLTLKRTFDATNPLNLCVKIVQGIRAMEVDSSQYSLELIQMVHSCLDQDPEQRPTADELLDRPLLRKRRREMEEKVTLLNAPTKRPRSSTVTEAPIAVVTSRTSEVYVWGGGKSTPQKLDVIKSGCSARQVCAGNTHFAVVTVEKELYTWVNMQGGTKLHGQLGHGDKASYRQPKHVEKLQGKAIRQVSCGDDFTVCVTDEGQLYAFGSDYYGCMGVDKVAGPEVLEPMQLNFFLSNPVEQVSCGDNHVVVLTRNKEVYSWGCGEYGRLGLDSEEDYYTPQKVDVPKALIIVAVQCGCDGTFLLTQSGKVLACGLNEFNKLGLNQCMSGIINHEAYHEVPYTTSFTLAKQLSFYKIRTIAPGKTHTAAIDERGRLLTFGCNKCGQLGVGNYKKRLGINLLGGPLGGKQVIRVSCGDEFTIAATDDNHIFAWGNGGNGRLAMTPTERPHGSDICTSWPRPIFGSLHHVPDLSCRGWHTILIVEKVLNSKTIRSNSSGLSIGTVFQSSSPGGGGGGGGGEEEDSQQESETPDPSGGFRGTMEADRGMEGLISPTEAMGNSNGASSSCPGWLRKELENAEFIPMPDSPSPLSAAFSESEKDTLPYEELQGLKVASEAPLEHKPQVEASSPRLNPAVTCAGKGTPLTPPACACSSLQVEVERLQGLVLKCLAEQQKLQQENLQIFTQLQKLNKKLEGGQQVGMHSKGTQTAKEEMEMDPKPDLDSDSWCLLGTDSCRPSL

off-target kinases (Homo sapiens, UniProt Q00535), sequence (Q00535 whole entry): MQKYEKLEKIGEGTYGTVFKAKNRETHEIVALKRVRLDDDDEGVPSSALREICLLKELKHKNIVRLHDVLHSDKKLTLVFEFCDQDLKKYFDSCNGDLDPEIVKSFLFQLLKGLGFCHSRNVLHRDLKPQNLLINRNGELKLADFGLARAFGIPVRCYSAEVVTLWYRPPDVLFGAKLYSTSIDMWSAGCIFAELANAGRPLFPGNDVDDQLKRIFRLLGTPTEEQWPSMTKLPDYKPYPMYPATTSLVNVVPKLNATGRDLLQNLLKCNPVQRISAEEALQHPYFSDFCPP
off-target kinases (Homo sapiens, UniProt Q04759), sequence (Q04759 whole entry): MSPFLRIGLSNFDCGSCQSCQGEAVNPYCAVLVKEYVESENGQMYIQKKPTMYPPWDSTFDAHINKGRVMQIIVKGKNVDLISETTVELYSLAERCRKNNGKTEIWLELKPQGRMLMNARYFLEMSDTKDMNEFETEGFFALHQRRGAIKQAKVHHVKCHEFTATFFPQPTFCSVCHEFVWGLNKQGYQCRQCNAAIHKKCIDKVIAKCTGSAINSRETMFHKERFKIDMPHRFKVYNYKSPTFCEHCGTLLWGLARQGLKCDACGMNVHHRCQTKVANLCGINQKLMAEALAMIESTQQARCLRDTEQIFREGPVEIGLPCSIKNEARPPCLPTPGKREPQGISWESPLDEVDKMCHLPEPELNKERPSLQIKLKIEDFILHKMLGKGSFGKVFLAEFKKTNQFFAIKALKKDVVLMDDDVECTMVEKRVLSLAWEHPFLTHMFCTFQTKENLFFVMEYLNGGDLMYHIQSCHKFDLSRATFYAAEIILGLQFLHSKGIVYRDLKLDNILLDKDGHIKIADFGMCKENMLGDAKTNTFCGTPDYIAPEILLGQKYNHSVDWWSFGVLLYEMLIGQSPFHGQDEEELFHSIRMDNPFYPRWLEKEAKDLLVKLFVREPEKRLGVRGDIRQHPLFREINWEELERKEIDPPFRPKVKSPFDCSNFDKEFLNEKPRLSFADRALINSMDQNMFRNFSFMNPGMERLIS
off-target kinases (Homo sapiens, UniProt P27448), sequence (P27448 whole entry): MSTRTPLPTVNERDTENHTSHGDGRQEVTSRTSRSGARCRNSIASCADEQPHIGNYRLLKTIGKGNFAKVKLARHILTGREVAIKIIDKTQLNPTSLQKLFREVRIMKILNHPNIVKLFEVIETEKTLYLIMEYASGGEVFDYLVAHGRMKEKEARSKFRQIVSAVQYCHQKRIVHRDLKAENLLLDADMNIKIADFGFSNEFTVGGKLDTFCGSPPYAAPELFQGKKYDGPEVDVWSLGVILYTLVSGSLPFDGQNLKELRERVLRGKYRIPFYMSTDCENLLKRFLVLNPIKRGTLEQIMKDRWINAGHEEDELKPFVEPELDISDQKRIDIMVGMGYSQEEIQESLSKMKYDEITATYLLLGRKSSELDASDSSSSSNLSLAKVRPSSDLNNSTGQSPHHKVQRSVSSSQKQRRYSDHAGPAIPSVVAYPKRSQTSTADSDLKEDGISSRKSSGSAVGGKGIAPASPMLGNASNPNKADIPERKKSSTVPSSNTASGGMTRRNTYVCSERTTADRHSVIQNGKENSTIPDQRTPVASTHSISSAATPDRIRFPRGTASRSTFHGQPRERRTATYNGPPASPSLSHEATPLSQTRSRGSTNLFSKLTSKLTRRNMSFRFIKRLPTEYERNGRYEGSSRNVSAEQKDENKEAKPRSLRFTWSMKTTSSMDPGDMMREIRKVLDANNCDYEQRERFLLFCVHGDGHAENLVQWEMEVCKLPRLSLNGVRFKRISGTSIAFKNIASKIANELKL
off-target kinases (Homo sapiens, UniProt P16234, D842V), sequence (P16234 24-1089 D842V): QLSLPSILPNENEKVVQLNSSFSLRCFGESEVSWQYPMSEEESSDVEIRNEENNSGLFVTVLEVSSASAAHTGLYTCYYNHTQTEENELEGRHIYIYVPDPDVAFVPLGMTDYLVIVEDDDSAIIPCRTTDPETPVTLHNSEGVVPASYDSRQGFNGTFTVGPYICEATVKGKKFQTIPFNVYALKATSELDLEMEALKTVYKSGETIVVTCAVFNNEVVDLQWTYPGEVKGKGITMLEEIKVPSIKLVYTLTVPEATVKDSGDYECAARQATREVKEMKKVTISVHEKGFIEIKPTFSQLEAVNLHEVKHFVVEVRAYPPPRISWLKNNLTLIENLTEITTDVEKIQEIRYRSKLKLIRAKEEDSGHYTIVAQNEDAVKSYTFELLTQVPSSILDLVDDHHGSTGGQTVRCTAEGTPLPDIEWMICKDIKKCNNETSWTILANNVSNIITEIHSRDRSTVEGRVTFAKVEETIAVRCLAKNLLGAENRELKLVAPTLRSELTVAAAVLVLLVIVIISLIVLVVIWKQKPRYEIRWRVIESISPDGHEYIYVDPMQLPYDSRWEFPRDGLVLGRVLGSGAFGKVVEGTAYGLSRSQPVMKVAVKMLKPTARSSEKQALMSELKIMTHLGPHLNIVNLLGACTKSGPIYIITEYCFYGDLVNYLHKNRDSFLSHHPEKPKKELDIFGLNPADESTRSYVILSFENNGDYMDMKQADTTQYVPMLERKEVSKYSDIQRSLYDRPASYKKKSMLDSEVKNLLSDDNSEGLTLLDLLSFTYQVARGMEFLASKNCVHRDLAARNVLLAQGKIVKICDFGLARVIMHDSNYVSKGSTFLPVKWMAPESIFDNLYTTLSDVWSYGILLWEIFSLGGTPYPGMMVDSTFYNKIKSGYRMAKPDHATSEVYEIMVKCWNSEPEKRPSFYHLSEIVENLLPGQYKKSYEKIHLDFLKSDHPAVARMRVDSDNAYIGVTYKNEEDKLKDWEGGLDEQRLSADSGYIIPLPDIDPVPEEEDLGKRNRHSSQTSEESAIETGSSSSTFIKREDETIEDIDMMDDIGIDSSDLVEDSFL
off-target kinases (Homo sapiens, UniProt Q08345), sequence (Q08345 19-913): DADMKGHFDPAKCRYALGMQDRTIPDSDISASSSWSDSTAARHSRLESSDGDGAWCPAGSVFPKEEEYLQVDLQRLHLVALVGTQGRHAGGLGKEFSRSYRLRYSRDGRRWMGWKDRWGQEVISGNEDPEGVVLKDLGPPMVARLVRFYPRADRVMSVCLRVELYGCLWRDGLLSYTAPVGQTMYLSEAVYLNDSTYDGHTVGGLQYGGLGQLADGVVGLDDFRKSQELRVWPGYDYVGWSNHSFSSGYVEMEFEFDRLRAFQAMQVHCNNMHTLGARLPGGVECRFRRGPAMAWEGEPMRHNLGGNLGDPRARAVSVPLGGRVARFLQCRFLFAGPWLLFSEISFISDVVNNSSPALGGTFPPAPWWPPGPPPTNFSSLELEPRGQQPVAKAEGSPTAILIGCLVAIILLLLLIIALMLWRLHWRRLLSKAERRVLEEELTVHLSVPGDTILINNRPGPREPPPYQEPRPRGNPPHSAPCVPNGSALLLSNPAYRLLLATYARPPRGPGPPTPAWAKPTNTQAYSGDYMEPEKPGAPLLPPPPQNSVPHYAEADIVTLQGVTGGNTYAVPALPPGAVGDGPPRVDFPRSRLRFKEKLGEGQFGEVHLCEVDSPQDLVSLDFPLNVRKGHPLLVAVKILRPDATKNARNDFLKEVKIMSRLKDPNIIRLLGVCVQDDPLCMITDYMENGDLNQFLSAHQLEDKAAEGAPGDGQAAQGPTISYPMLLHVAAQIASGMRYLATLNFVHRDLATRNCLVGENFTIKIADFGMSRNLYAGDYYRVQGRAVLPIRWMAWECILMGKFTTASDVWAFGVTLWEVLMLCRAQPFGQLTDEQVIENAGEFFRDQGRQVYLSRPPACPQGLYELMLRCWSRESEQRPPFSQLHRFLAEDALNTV
off-target kinases (Homo sapiens, UniProt P54764), sequence (P54764 20-986): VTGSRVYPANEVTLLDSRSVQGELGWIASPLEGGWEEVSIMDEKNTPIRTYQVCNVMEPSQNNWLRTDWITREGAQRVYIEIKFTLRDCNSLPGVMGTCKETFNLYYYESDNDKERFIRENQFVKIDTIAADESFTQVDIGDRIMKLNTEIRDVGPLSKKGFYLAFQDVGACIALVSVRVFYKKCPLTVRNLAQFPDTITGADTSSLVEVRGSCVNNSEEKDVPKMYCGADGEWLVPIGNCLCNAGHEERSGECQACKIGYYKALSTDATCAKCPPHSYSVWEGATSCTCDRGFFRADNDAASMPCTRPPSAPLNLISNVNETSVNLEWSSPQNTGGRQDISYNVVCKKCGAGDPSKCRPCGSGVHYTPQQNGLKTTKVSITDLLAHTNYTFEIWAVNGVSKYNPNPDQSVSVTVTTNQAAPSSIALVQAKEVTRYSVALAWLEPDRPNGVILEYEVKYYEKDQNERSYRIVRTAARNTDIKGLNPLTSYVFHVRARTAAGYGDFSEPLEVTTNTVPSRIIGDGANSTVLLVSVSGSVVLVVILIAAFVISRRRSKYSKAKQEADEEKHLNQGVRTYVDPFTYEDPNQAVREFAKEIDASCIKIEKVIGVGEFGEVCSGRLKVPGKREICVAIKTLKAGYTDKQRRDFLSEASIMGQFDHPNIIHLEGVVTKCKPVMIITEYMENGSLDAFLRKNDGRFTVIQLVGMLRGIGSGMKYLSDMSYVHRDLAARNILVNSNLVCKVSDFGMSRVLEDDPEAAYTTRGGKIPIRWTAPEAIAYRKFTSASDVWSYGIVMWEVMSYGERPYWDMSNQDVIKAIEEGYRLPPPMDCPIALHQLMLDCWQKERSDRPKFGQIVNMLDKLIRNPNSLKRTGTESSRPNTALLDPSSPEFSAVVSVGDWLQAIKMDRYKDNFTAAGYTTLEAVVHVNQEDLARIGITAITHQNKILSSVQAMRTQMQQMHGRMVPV
off-target kinases (Homo sapiens, UniProt Q16816), sequence (Q16816 whole entry): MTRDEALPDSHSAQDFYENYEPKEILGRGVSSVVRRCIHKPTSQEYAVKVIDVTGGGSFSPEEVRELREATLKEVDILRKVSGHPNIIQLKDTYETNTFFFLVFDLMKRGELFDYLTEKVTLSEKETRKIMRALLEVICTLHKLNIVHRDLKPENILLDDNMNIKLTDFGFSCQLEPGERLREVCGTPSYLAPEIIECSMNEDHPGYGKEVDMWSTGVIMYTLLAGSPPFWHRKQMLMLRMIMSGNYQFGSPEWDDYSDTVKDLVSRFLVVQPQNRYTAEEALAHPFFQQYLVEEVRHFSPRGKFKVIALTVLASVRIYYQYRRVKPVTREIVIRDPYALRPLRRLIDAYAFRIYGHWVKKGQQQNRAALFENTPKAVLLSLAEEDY

**Q.** Which results are given for `N#Cc1cc(-c2ncnc(Nc3ccc(N4CCN(C5COC5)CC4)cc3)n2)ccc1OC1CCOCC1` [Compound 1, 5-(4-((4-(4-(oxetan-3-yl)piperazin-1-yl)phenyl)amino)-1,3,5-triazin-2-yl)-2-((tetrahydro-2H-pyran-4-yl)oxy)benzonitrile]?
**A.** inhibition (off-target kinases [1]; read-out: % Inhibition 1): 77%; inhibition (off-target kinases [1]; read-out: % Inhibition 2): 73%; inhibition (off-target kinases [1]; read-out: % Inhibition Avg): 75%; inhibition (off-target kinases [2]; read-out: % Inhibition 1): 98%; inhibition (off-target kinases [2]; read-out: % Inhibition 2): 94%; inhibition (off-target kinases [2]; read-out: % Inhibition Avg): 96%; inhibition (off-target kinases [3]; read-out: % Inhibition 1): 18%; inhibition (off-target kinases [3]; read-out: % Inhibition 2): 21%; inhibition (off-target kinases [3]; read-out: % Inhibition Avg): 20%; inhibition (off-target kinases [4]; CDK5 (Inactive), LanthaScreen Binding, read-out: % Inhibition 1): 1%; inhibition (off-target kinases [4]; CDK5 (Inactive), LanthaScreen Binding, read-out: % Inhibition 2): -2%; inhibition (off-target kinases [4]; CDK5/p25, ZLYTE, ATP Km app, read-out: % Inhibition 1): 3%; inhibition (off-target kinases [4]; CDK5/p25, ZLYTE, ATP Km app, read-out: % Inhibition 2): 1%; inhibition (off-target kinases [4]; CDK5/p25, ZLYTE, ATP Km app, read-out: % Inhibition Avg): 2%; inhibition (off-target kinases [4]; CDK5/p35, ZLYTE, ATP Km app, read-out: % Inhibition 1): 7%; inhibition (off-target kinases [4]; CDK5/p35, ZLYTE, ATP Km app, read-out: % Inhibition 2): 2%; inhibition (off-target kinases [4]; CDK5/p35, ZLYTE, ATP Km app, read-out: % Inhibition Avg): 5%; inhibition (off-target kinases [4]; read-out: % Inhibition Avg): -1%; % Inhibition 1 (off-target kinases [5]): −6%; % Inhibition 2 (off-target kinases [5]): −17%; % Inhibition Avg (off-target kinases [5]): −12%; inhibition (off-target kinases [6]; read-out: % Inhibition 1): 3%; inhibition (off-target kinases [6]; read-out: % Inhibition 2): 2%; inhibition (off-target kinases [6]; read-out: % Inhibition Avg): 2%; inhibition (off-target kinases [7]; read-out: % Inhibition 1): 39%; inhibition (off-target kinases [7]; read-out: % Inhibition 2): 37%; inhibition (off-target kinases [7]; read-out: % Inhibition Avg): 38%; inhibition (off-target kinases [8]; read-out: % Inhibition 1): 46%; inhibition (off-target kinases [8]; read-out: % Inhibition 2): 45%; inhibition (off-target kinases [8]; read-out: % Inhibition Avg): 46%
